The values below are quoted from earlier work in patent publication US8785427B2, “Enzymatic process for obtaining 17 alpha-monoesters of cortexolone and/or its 9,11-dehydroderivatives” (Cosmo Dermatos Srl, priority 2007, dated 2014).

The conditions of the series: both in vitro and in vivo on the animal; described in EP1421099.

`CCCC(=O)O[C@]1(C(=O)CO)CC[C@H]2[C@@H]3CCC4=CC(=O)CC[C@]4(C)C3=CC[C@@]21C` [9,11-dehydro-cortexolone-17-α-butanoate, 9,11-Dehydro-Cortexolone-17α-Butanoate]: the antiandrogenic biological activity result was “high antiandrogenic biological activity”.
For the compound `CCC(=O)O[C@]1(C(=O)CO)CC[C@H]2[C@@H]3CCC4=CC(=O)CC[C@]4(C)[C@H]3CC[C@@]21C` [cortexolone 17α-propionate], the antiandrogenic biological activity result is given as “high antiandrogenic biological activity”.
